Test systems include CCRF-CEM leukemia; HS 578T breast; MALME-3M melanoma; NCI-H226 lung; OVCAR-4 ovarian; RPMI-8226 leukemia; RXF 393 renal; TK-10 renal; UACC-62 melanoma; EKVX NSCLC.
What all share (assay): NCI tumour cell line growth inhibition, 48 h

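96-well plates; 48 h exposure; 5 concentrations. Endpoints by linear interpolation between flanking doses. Not reached: highest tested concentration assigned. The concentration for 50% growth inhibition is given as GI50. TGI marks complete inhibition of growth.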

Regarding `COC(=O)Nc1nc2c(OC)c(OC)c(OC)cc2[nH]1`, the GI50 with CCRF-CEM leukemia is 25.4 µM; in the test with HS 578T breast it was 30 µM; in the test with MALME-3M melanoma, 16.4 µM; with NCI-H226 lung it was 61.4 µM; in the test with OVCAR-4 ovarian it was 64.2 µM; with RPMI-8226 leukemia, 35.6 µM. Also, the GI50 was 18.4 µM in the test on RXF 393 renal, 66.6 µM in the test with TK-10 renal and 13.3 µM in the test with UACC-62 melanoma. The TGI with CCRF-CEM leukemia is above 100 µM; with HS 578T breast it was above 92.3 µM; in the test on MALME-3M melanoma it was above 100 µM; in the test with NCI-H226 lung, above 100 µM; with OVCAR-4 ovarian, above 100 µM; in the test on RPMI-8226 leukemia, above 100 µM. For the same compound, the TGI was 66 µM with RXF 393 renal, above 100 µM in the test on TK-10 renal and above 100 µM in the test with UACC-62 melanoma.
Consider `Cc1cc(-c2ccccc2)c(C)n1Cc1ccc(Cl)cc1`, for which the GI50 in the test on CCRF-CEM leukemia is 3.46 µM; in the test on HS 578T breast, 4.43 µM; in the test on MALME-3M melanoma it was 3.85 µM; in the test with NCI-H226 lung, 26.3 µM; in the test on OVCAR-4 ovarian, 9.56 µM; in the test with RPMI-8226 leukemia it was 3.83 µM. The results for the GI50 in the test on RXF 393 renal, in the test with TK-10 renal and in the test on UACC-62 melanoma were 2.33 µM, 9.66 µM and 3.44 µM, respectively. For the same compound, the TGI was above 100 µM in the test on CCRF-CEM leukemia; above 100 µM with HS 578T breast; 39.1 µM with MALME-3M melanoma; above 100 µM in the test on NCI-H226 lung; above 100 µM in the test on OVCAR-4 ovarian; 61.6 µM with RPMI-8226 leukemia. Also, the TGI was 16.6 µM in the test with RXF 393 renal, 65.4 µM in the test on TK-10 renal and above 100 µM with UACC-62 melanoma.
As for `CCOC(=O)Nc1nc2c(F)c(F)c(F)cc2s1`, the GI50 in the test with CCRF-CEM leukemia is above 100 µM; in the test on HS 578T breast, 27.4 µM; with MALME-3M melanoma it was above 100 µM; in the test with NCI-H226 lung, 46 µM; in the test on OVCAR-4 ovarian it was 37.5 µM; in the test on RPMI-8226 leukemia, above 100 µM. Moreover, the GI50 with RXF 393 renal was 29.6 µM; with TK-10 renal, above 100 µM; in the test with UACC-62 melanoma, 19.7 µM. Moreover, the TGI with CCRF-CEM leukemia, in the test with HS 578T breast, in the test on MALME-3M melanoma, in the test with NCI-H226 lung, in the test on OVCAR-4 ovarian and in the test with RPMI-8226 leukemia was above 100 µM in each case. Also, the TGI in the test with RXF 393 renal, in the test on TK-10 renal and in the test with UACC-62 melanoma was above 100 µM throughout.
For the compound `CC(=O)OCCC/C(=C\c1ccc2ccccc2c1)[N+](=O)[O-]`, the GI50 was 2.19 µM in the test with CCRF-CEM leukemia; 1.09 µM in the test with HS 578T breast; 1.91 µM in the test with MALME-3M melanoma; 1.76 µM with NCI-H226 lung; 1.76 µM in the test on OVCAR-4 ovarian; 1.55 µM in the test with RPMI-8226 leukemia. Moreover, the GI50 in the test on RXF 393 renal is 1.94 µM; in the test on TK-10 renal, 1.58 µM; in the test on UACC-62 melanoma it was 1.47 µM. Further, the TGI turned out to be 7.88 µM in the test with CCRF-CEM leukemia; 5.19 µM with HS 578T breast; 4.9 µM in the test with MALME-3M melanoma; 4.16 µM in the test on NCI-H226 lung; 3.39 µM in the test with OVCAR-4 ovarian; 3.72 µM in the test with RPMI-8226 leukemia. The values for the TGI with RXF 393 renal, in the test with TK-10 renal and in the test on UACC-62 melanoma were 4.1 µM, 3.4 µM and 2.98 µM, respectively.
As for `CSc1nc(Cl)c(Br)c(Nc2c[nH]c(=O)[nH]c2=O)n1`, the TGI in the test on CCRF-CEM leukemia was 49 µM; with EKVX NSCLC it was 33.8 µM; in the test with MALME-3M melanoma it was 43.9 µM; with NCI-H226 lung, 41.7 µM; in the test with OVCAR-4 ovarian, 37.9 µM; in the test with RPMI-8226 leukemia it was above 100 µM. For the same compound, the TGI in the test with RXF 393 renal turned out to be 45.4 µM; with TK-10 renal it was 40 µM; in the test on UACC-62 melanoma it was 31.4 µM.
For `COc1ccc(/C=C/c2nc(N3CCOCC3)c3cc(F)c(F)cc3n2)cc1OC`, the GI50 in the test with CCRF-CEM leukemia is 4.7 µM; in the test on HS 578T breast, 54.8 µM; with NCI-H226 lung it was 3.07 µM; with OVCAR-4 ovarian, 1.43 µM; in the test on RPMI-8226 leukemia, 2.7 µM; with RXF 393 renal, 5.06 µM. The GI50 with TK-10 renal is 4.84 µM; in the test with UACC-62 melanoma, 3.55 µM. Also, the TGI with CCRF-CEM leukemia, in the test on HS 578T breast, with NCI-H226 lung, in the test with OVCAR-4 ovarian, with RPMI-8226 leukemia and with RXF 393 renal was above 100 µM each time. Besides, the TGI in the test with TK-10 renal and with UACC-62 melanoma was above 100 µM each time.
For the compound `O=C(O)c1cn(C2CC2)c2cc(N3CCN(S(=O)(=O)c4ccc(Cl)c(Cl)c4)CC3)c(F)cc2c1=O`, the GI50 with CCRF-CEM leukemia was 2.61 µM; in the test on HS 578T breast, 4.26 µM; in the test on MALME-3M melanoma, 2.3 µM; with NCI-H226 lung, 3.58 µM; in the test on RPMI-8226 leukemia it was 2.53 µM; with RXF 393 renal it was 2.98 µM. Moreover, the GI50 in the test with TK-10 renal was 4.31 µM. Also, the TGI was above 100 µM with CCRF-CEM leukemia; above 100 µM in the test with HS 578T breast; 5.24 µM in the test with MALME-3M melanoma; above 100 µM in the test with NCI-H226 lung; 7.59 µM with RPMI-8226 leukemia; 9.51 µM with RXF 393 renal. In the test with TK-10 renal, this compound displayed a TGI above 100 µM.

These data come from PubChem BioAssay (NCI).
